These results are taken from US20060194856A1, “Use of atii antagonist for the treatment or prevention of metabolic syndrome” (ASTRAZENECA AB, priority 2003, published 2006).

Several values for one entry are separate records, joined by “and”; a condition that tells them apart may be missing. Equal entries are not always repeated.

The nature of test [1]: Clinical study: plasma triglycerides. Type of test: in vivo. The following applies: individual patients of the candesartan cilexetil group with metabolic syndrome at baseline but not after 12 months. As for the experimental part: (§1) A clinical study was performed. It was a study with a double-blind, randomised, controlled, parallel group design.
After four weeks of single-blind treatment with placebo, the patients were randomised to double-blind treatment with either candesartan cilexetil 16 mg or hydrochlorothiazide 25 mg and followed for one year. If sitting systolic or diastolic blood pressure was above target pressure (<130/<85 mmHg, for patients below 65 years, or <140/<90 mmHg, if 65 years or older) [1999 World Health Organization (WHO)—International Society of Hypertension Guidelines for the Management of Hypertension. […]
Total plasma cholesterol, LDL-cholesterol, HDL-cholesterol and triglycerides were determined in all patients at randomisation (n=392), and in most patients after six months (n=354), and after 12 months (n=352). Total plasma cholesterol and triglycerides concentrations were determined enzymatically. HDL-cholesterol was measured after the precipitation of apolipoprotein B-containing lipoproteins in whole plasma by heparin-manganese chloride [Lipid Research Clinics Program: Manual of Laboratory Operations, Bethesda, Md.: National Institutes of Health, Vol 1. […] Their LDL cholesterol levels were not calculated.

A short description of test [2]: Clinical study: fasting serum insulin and plasma glucose. It is filed as in vivo, patients. The following applies: for P-glucose, At 12 months / S-insulin, At 12 months / S-insulin/P-glucose, At 12 months: at 12 months of treatment; for P-glucose, At 12 months / S-insulin, At 12 months / P-glucose, Baseline / S-insulin, Baseline: fasting; for P-glucose, At 12 months / S-insulin, At 12 months / S-insulin/P-glucose, At 12 months / P-glucose, Baseline / S-insulin, Baseline / S-insulin/P-glucose, Baseline / P-glucose, Mean change at 12 months / S-insulin, Mean change at 12 months / S-insulin/P-glucose, Mean change at 12 months: mean (SD); for P-glucose, Baseline / S-insulin, Baseline / S-insulin/P-glucose, Baseline: baseline (before randomised treatment); for P-glucose, Mean change at 12 months / S-insulin, Mean change at 12 months / S-insulin/P-glucose, Mean change at 12 months: change from baseline to 12 months; for Fasting levels of both serum insulin and plasma glucose during treatment: result in words, 12 months treatment. The procedure:
The fasting plasma glucose level is defined as the concentration of glucose in the plasma of a subject after an overnight's fast. Patients were instructed not to eat breakfast on the morning of the follow-up visits.
as §1
(§2) After four weeks of single-blind treatment with placebo, the patients were randomised to double-blind treatment with either candesartan cilexetil 16 mg or hydrochlorothiazide 25 mg and followed for one year. If sitting systolic or diastolic blood pressure was above target pressure (<130/<85 mmHg, for patients below 65 years, or <140/<90 mmHg, if 65 years or older) [1999 World Health Organization (WHO)—International Society of Hypertension Guidelines for the Management of Hypertension. Journal of Hypertension 1999; 17; 151-83] at any visit during the treatment period, double-blind treatment with felodipine extended-release 2.5-5.0 mg was added to the candesartan group and atenolol 50-100 mg was added to the hydrochlorothiazide group. No further antihypertensive treatment was allowed. Two patients were withdrawn from the study, both in the candesartan cilexetil group, since their blood pressure exceeded the pre-specified safety level (≧180 and/or ≧105 mm Hg, mean of two recordings at different visits).
Analyses of plasma glucose were carried out at the Department of Clinical Chemistry, Umeå University Hospital. Plasma glucose was routinely analysed by Vitros 950 glucose oxidase method (Ortho Clinical Diagnostics).
(§3) Efficacy variables were analysed using analysis of covariance (ANCOVA) with treatment and health centre as factors and baseline value as covariate. Difference in treatment effect was estimated with 95% confidence interval. To test difference between treatments in change of biochemistry variables the Wilcoxon Rank Sum test was used. […] In this approach all randomised patients who had completed the study and had taken at least one dose of study drug were included.

Test [3] in a line: Clinical study: metabolic syndrome diagnosed according to WHO criteria. Type of test: in vivo, patients. The following applies: n = 196 per group. As for the experimental part:
as §1, §2
The metabolic syndrome was diagnosed according to the following criteria [World Health Organization (WHO). Department of Noncommunicable Disease Surveillance. Geneva: WHO 1999 pp 1-59]: • 1. Fasting plasma glucose above 6.1 mmol/L • 2. Blood pressure above 140/90 mm Hg • 3. One or more of the following: • a. plasma triglycerides above 1.7 mmol/L and/or HDL below 0.9 mmol/L (men), below 1.0 mmol/L (women) • b. Body mass index above 30 kg/m^2 Statistical Analyses

A short description of test [4]: Double-blind randomised clinical study: sitting blood pressure and heart rate. It is filed as in vivo, patients. The settings on record: for patients who attained a blood pressure <140/<90 mm Hg: after one year; for SBP, mean change / DBP, mean change / Heart rate, mean change: sitting, mean (SD). As for the experimental part:
as §1
For inclusion, sitting blood pressure should be in the range of 140-179 and/or 90-104 mm Hg (mean of two measurements according to standardised procedures [1999 World Health Organization (WHO)—International Society of Hypertension Guidelines for the Management of Hypertension. Journal of Hypertension 1999; 17; 151-83] and at two visits) on placebo treatment and after the patients had been subjected to non-pharmacological treatment, as recommended [The Swedish Council on Technology Assessment in Health Care (SBU). Moderately elevated blood pressure. J Intern Med 1995; 238(Suppl 737): S1-S128; 1999 World Health Organization (WHO)—International Society of Hypertension Guidelines for the Management of Hypertension. Journal of Hypertension 1999; 17; 151-83] for one month or longer. Since the non-pharmacological intervention had been introduced before the start of the study and then maintained, its effect on metabolic variables during the study was minimal.
as §2, §3

[5] abbreviates: at 6 months, hypertensive patients, candesartan cilexetil 16 mg (+ felodipine if needed) or HCTZ 25 mg (+ atenolol if needed).

Consider `CCOc1nc2cccc(C(=O)OC(C)OC(=O)OC3CCCCC3)c2n1Cc1ccc(-c2ccccc2-c2nn[nH]n2)cc1` (centres unmarked) [Candesartan cilexetil, candesartan cilexetil], for which the “Triglycerides, 12 months” value in test [1] (after 12 months) is 1.59 mmol/L and 1.44 mmol/L and 1.28 mmol/L. For the same compound, the “Triglycerides, Baseline” value in test [1] (baseline) was 2.15 mmol/L and 2.34 mmol/L and 2.65 mmol/L. In test [2], the “P-glucose, At 12 months” value is recorded as 5.10 (0.57) mmol/L; the “S-insulin, At 12 months” value was 8.96 (5.42) mlU/L; the “S-insulin/P-glucose, At 12 months” value is recorded as 1.76 (1.06); the “P-glucose, Baseline” value is 5.17 (0.58) mmol/L. Further, in test [2], the “S-insulin, Baseline” value is 9.25 (7.90) mlU/L; the “S-insulin/P-glucose, Baseline” value is 1.77 (1.38); the “P-glucose, Mean change at 12 months” value is −0.06 (0.46) mmol/L; the “S-insulin, Mean change at 12 months” value is −0.30 (6.50) mlU/L. In test [2], the “S-insulin/P-glucose, Mean change at 12 months” value is listed as −0.00 (1.23); the “Fasting levels of both serum insulin and plasma glucose during treatment” value is given as “unaffected”. Besides, the “Fasting glucose, 12 months” value in test [2] (individual patients 1-8 of the candesartan cilexetil group with metabolic syndrome at baseline but not after 12 months, after 12 months) was 5.5 mmol/L and 5.7 mmol/L (2×) and 5.6 mmol/L and 5.2 mmol/L and 6.0 mmol/L and 5.9 mmol/L. The “Fasting glucose, Baseline” value in test [2] (individual patients 1-8 of the candesartan cilexetil group with metabolic syndrome at baseline but not after 12 months, baseline) is 6.1 mmol/L and 6.5 mmol/L and 6.2 mmol/L (4×) and 6.4 mmol/L. In test [3] (at base-line), the “patients suffering from the metabolic syndrome as defined by WHO” value (from here on “patients suffering”) turned out to be 13 patients. Moreover, the “patients who attained a blood pressure <140/<90 mm Hg” value in test [4] came to 65%. For the same compound, in test [4] (setting [5]), the “SBP, mean change” value is reported as −20.9 (13.1) mm Hg. In addition, in test [4] (at 6 months, same regimens), the “DBP, mean change” value is recorded as −12.8 (6.9) mm Hg and the “Heart rate, mean change” value is reported as −2.1 (8.4) bpm. In test [4] (at 12 months, same regimens), the “DBP, mean change” value was −13.0 (7.4) mm Hg; the “Heart rate, mean change” value is reported as −2.2 (8.4) bpm; the “SBP, mean change” value is −21.0 (15.2) mm Hg.
For the compound `NS(=O)(=O)c1cc2c(cc1Cl)NCNS2(=O)=O` [HCTZ, hydrochlorothiazide], in test [2], the “P-glucose, At 12 months” value was 5.42 (0.89) mmol/L; the “S-insulin, At 12 months” value is recorded as 11.00 (6.88) mlU/L; the “S-insulin/P-glucose, At 12 months” value is 2.03 (1.23); the “P-glucose, Baseline” value is reported as 5.29 (0.98) mmol/L. In addition, in test [2], the “S-insulin, Baseline” value is recorded as 9.65 (6.09) mlU/L; the “S-insulin/P-glucose, Baseline” value was 1.83 (1.10); the “P-glucose, Mean change at 12 months” value is 0.13 (0.69) mmol/L; the “S-insulin, Mean change at 12 months” value is 1.35 (6.09) mlU/L. Besides, in test [2], the “S-insulin/P-glucose, Mean change at 12 months” value is on record as 0.20 (1.13); the “Fasting levels of both serum insulin and plasma glucose during treatment” value was “increased”. Also, the “patients suffering” value in test [3] (at 12 months, p=0.007 between groups) was 18 patients. The “patients suffering” value in test [3] (at base-line) is reported as 12 patients. Further, in test [4], the “patients who attained a blood pressure <140/<90 mm Hg” value is given as 62%. Further, the “SBP, mean change” value in test [4] (setting [5]) is −23.9 (13.0) mm Hg. Besides, in test [4] (at 6 months, same regimens), the “DBP, mean change” value is recorded as −13.9 (7.1) mm Hg and the “Heart rate, mean change” value is −6.8 (10.1) bpm. For the same compound, in test [4] (at 12 months, same regimens), the “DBP, mean change” value was −12.9 (7.7) mm Hg; the “Heart rate, mean change” value was −7.3 (9.4) bpm; the “SBP, mean change” value is −22.8 (14.9) mm Hg.
